{"source": "patent US7741348B2", "about": "“Bisheterocycle tandem compounds useful as antiviral agents, the uses thereof and the compositions comprising such compounds” (Shanghai Institute of Materia Medica, Chinese Academy of …, priority 2005, dated 2010)", "type_in_all_cases": "cell-based", "key": {"[1]": {"assay": "Cytotoxicity to HepG2.2.15 cells (MTT method)", "details": "human, HepG2.2.15 cells (HBV-transgenic human hepatoma cells), 50% death concentration, eighth day", "excerpt": "(§1) Hepatitis B virus (HBV) transgenic human hepatoma carcinoma cell, HepG2.2.15 cell line, can secrete hepatitis B virus particles (containing antigen and DNA) into supernatant when being cultured.\n(§2) Under action of antiviral drugs, the contents of HBsAg, HBeAg and viral DNA secreted from cells into the supernatant were detected and are compared with the contents of control groups without drugs, so that the antiviral activity of the compounds of the present invention can be measured as well as the cytotoxic effect of compounds of the present invention. The value concentration of the compounds of the present invention which caused 50% of cells dead and was measured with MTT method was CC50; and the value concentration of the compounds of the present invention which inhibited the secretion of HBsAg and HBeAg detected by ELISA method and inhibited 50% of viral DNA replication detected by fluorescent quantification PCR method was IC50.\n(§3) HepG2.2.15 cells were inoculated on a 96-well plate, and the compounds of the present invention were added next day. The medium and the compound solutions of the same concentration were renewed periodically. The culture supernatants were collected on the eighth day to be detected. MTT was added to the cells on the 96-well plate, and MTT dissolving liquid was added after 4 hours to be reacted overnight. OD570 was measured next day on microplate reader. And the cytotoxicity of the compounds of the present invention to the HepG2.2.15 cells, the effect of the compounds of the present invention on the growth of the cells, and the concentration of the compound of the present invention (CC50) causing 50% of the cells dead were estimated according to the OD values."}, "hepatitis B virus (HBV)": {"system": "hepatitis B virus (HBV)", "assay": "HBV-DNA replication in HepG2.2.15 culture supernatant (fluorescent quantification PCR)", "details": "for IC50: Hepatitis B virus", "excerpt": "as §1, §2, §3\nA suitable amount of culture supernatant was added into a same volume of virus extract solution, and was boiled after mixed uniformly, then centrifuged at 10000 rpm for 5 min under room temperature. A suitable amount of supernatant was collected for PCR amplification. Five HBV-DNA standard samples were used to set a standard curve. According to the obtained viral DNA replication value, the inhibition rates of HBV-DNA replication of the compound of the present invention at different concentrations were calculated, and then the half inhibition rates of the compounds were calculated to obtain IC50. For the samples that can not be calculated for IC50 value, they can be represented by ICX and given the corresponding concentration values."}, "influenza A virus": {"system": "influenza A virus", "assay": "Anti influenza A virus activity, cytopathic effect (CPE) in MDCK cells", "excerpt": "(§4) 4. Screening of the samples for the anti-influenza virus A and B activity: MDCK (canine kidney) cells were used as the virus host to test the inhibition effect of the compounds of the present invention on the cytopathic effect (CPE) of the cells caused by the virus."}, "[2]": {"system": "MDCK (canine kidney) cells", "assay": "50% toxicity concentration in the anti-influenza screen (MDCK cells)", "details": "50% toxity concentration, Table 3-2 (influenza screen, MDCK cells)", "excerpt": "as §4"}, "[3]": {"details": "HepG2.2.15 supernatant, eighth day, fluorescent quantification PCR, read-out: DNA replication IC50"}, "[4]": {"details": "HepG2.2.15, read-out: DNA replication IC50"}}, "note": "Like-named read-outs stand apart in the source and are kept apart here."}
{"smiles": "CCOC(=O)c1nc(-c2cc3ccccc3[nH]2)[nH]c1CC(C)C", "note": "[Compound C311-2]", "values": [{"measurement": "CC50", "setting": "[1]", "value": 3.5, "unit": "µM"}, {"measurement": "IC50", "setting": "hepatitis B virus (HBV); [3]", "value": 0.07, "unit": "µM"}]}
{"smiles": "CCCCc1oc(-c2ccc(CCC)s2)nc1C(=O)OCC", "note": "[Compound C321-1]", "values": [{"measurement": "CC50", "setting": "[1]", "value": 80, "unit": "µM"}, {"measurement": "IC50", "setting": "hepatitis B virus (HBV); [3]", "value": 5.86, "unit": "µM"}]}
{"smiles": "CCOC(=O)c1nc(-c2cccs2)sc1C1CCCCC1", "note": "[Compound C321-2]", "values": [{"measurement": "CC50", "setting": "[1]", "value": 28.2, "unit": "µM"}, {"measurement": "IC50", "setting": "hepatitis B virus (HBV); [4]", "value": 1.67, "unit": "µM"}]}
{"smiles": "CCCc1ccc(-c2nc(C(=O)OCC)c(CC(C)C)o2)s1", "note": "[Compound C321-3]", "values": [{"measurement": "CC50", "setting": "[1]", "value": 80, "unit": "µM"}, {"measurement": "DNA replication IC27", "setting": "hepatitis B virus (HBV); ICX: concentration with 27% inhibition of HBV-DNA replication, IC50 not calculable", "value": "IC27 = 1.23 uM"}]}
{"smiles": "CCOC(=O)c1nc(-c2nc(CC)cs2)sc1CC(C)C", "note": "[Compound C324-2]", "values": [{"measurement": "CC50", "setting": "[1]", "value": "> 100", "unit": "µM"}, {"measurement": "IC50", "setting": "hepatitis B virus (HBV); [3]", "value": 0.14, "unit": "µM"}]}
{"smiles": "CCOC(=O)c1nc(-c2cccs2)[nH]c1/C=C/c1ccccc1", "note": "[Compound C324]", "values": [{"measurement": "CC50", "setting": "[1]", "value": 61, "unit": "µM"}]}
{"smiles": "CCOC(=O)c1nc(-c2cc3ccccc3[nH]2)sc1CC(C)C", "note": "[Compound C328-2]", "values": [{"measurement": "CC50", "setting": "[1]", "value": 21.7, "unit": "µM"}]}
{"smiles": "CCOC(=O)c1nc(-c2cc3ccccc3s2)[nH]c1CC(C)C", "note": "[Compound C328]", "values": [{"measurement": "CC50", "setting": "[1]", "value": "> 7.5", "unit": "µM"}, {"measurement": "IC50", "setting": "hepatitis B virus (HBV); [3]", "value": 0.19, "unit": "µM"}]}
{"smiles": "CCOC(=O)c1nc(-c2cc3ccccc3s2)oc1CC(C)C", "note": "[Compound C329]", "values": [{"measurement": "CC50", "setting": "[1]", "value": "> 100", "unit": "µM"}, {"measurement": "DNA replication IC41.8", "setting": "hepatitis B virus (HBV); ICX: concentration with 41.8% inhibition of HBV-DNA replication, IC50 not calculable", "value": "IC41.8 = 4 uM"}]}
{"smiles": "CCCc1ccc(-c2nc(C(=O)OCC)c(CC(C)C)s2)s1", "note": "[Compound C337]", "values": [{"measurement": "CC50", "setting": "[1]", "value": 60, "unit": "µM"}]}
{"smiles": "CC(C)Cc1sc(-c2nccs2)nc1C(=O)Nc1ccccc1", "note": "[Compound C343]", "values": [{"measurement": "DNA replication IC19", "setting": "hepatitis B virus (HBV); ICX: concentration with 19% inhibition of HBV-DNA replication, IC50 not calculable", "value": "IC19 = 1.23 uM"}]}
{"smiles": "CCOC(=O)c1nc(-c2cc3ccccc3s2)sc1CC(C)C", "note": "[Compound C345]", "values": [{"measurement": "CC50", "setting": "[1]", "value": "> 88.1", "unit": "µM"}, {"measurement": "IC50", "setting": "hepatitis B virus (HBV); [4]", "value": 1.32, "unit": "µM"}]}
{"smiles": "CCOc1cnc(-c2oc(-c3cccs3)nc2C(=O)c2ccccc2)o1", "note": "[Compound C352]", "values": [{"measurement": "CC50", "setting": "[1]", "value": "> 33.3", "unit": "µM"}, {"measurement": "IC50", "setting": "hepatitis B virus (HBV); [3]", "value": 8.3, "unit": "µM"}]}
{"smiles": "CC(C)Cc1sc(-c2nccs2)nc1C(=O)NCc1ccccc1", "note": "[Compound C357]", "values": [{"measurement": "CC50", "setting": "[1]", "value": 80, "unit": "µM"}, {"measurement": "DNA replication IC89", "setting": "hepatitis B virus (HBV); ICX: concentration with 89% inhibition of HBV-DNA replication, IC50 not calculable", "value": "IC89 = 33 uM"}]}
{"smiles": "CCOC(=O)c1nc(-c2nc3cc(OC)ccc3s2)sc1CC(C)C", "note": "[Compound C376]", "values": [{"measurement": "CC50", "setting": "[1]", "value": 127, "unit": "µM"}, {"measurement": "IC50", "setting": "hepatitis B virus (HBV); [3]", "value": 23, "unit": "µM"}]}
{"smiles": "NC(=O)c1ncn([C@@H]2O[C@H](CO)[C@@H](O)[C@H]2O)n1", "note": "[Ribavirin, reference compound]", "values": [{"measurement": "IC50", "setting": "influenza A virus", "value": 3.73, "unit": "µg/mL"}]}
{"smiles": "Cc1oc(-c2csc([C@@H](NC(=O)CC3=CCCC3)C(C)C)n2)nc1C(=O)O", "note": "[Wang389.47]", "values": [{"measurement": "IC50", "setting": "influenza A virus", "value": 29, "unit": "µg/mL"}, {"measurement": "TC50", "setting": "[2]", "value": 480.75, "unit": "µg/mL"}]}
{"smiles": "COC(=O)c1nc(-c2csc([C@@H](NC(=O)C3CCCC3)C(C)C)n2)oc1C", "note": "[Wang391.49-1]", "values": [{"measurement": "IC50", "setting": "influenza A virus", "value": 0.56, "unit": "µg/mL"}, {"measurement": "TC50", "setting": "[2]", "value": 250, "unit": "µg/mL"}]}
{"smiles": "COC(=O)c1nc(-c2csc([C@@H](NC(=O)CC=C(C)C)C(C)C)n2)oc1C", "note": "[Wang391.49-2]", "values": [{"measurement": "IC50", "setting": "influenza A virus", "value": "> 192", "unit": "µg/mL"}, {"measurement": "TC50", "setting": "[2]", "value": ">1000", "unit": "µg/mL"}]}
{"smiles": "COc1ccccc1C(=O)N[C@H](c1nc(-c2nc(C(=O)O)c(C)o2)cs1)C(C)C", "note": "[Wang415.46]", "values": [{"measurement": "IC50", "setting": "influenza A virus", "value": 29, "unit": "µg/mL"}, {"measurement": "TC50", "setting": "[2]", "value": 333.33, "unit": "µg/mL"}]}
{"smiles": "COC(=O)c1nc(-c2csc([C@@H](NC(=O)c3ccccc3OC)C(C)C)n2)oc1C", "note": "[Wang429.49]", "values": [{"measurement": "IC50", "setting": "influenza A virus", "value": 47.7, "unit": "µg/mL"}, {"measurement": "TC50", "setting": "[2]", "value": 333.33, "unit": "µg/mL"}]}
{"smiles": "CCC(=O)N[C@H](c1nc(-c2nc(C(=O)N[C@@H](C)c3nc(C(=O)OC)co3)c(C)o2)cs1)C(C)C", "note": "[Wang489.55]", "values": [{"measurement": "IC50", "setting": "influenza A virus", "value": 160, "unit": "µg/mL"}, {"measurement": "TC50", "setting": "[2]", "value": 577.35, "unit": "µg/mL"}]}
{"smiles": "COC(=O)c1coc([C@H](C)NC(=O)c2nc(-c3csc([C@@H](NC(=O)CC=C(C)C)C(C)C)n3)oc2C)n1", "note": "[Wang529.61-2]", "values": [{"measurement": "IC50", "setting": "influenza A virus", "value": 111, "unit": "µg/mL"}, {"measurement": "TC50", "setting": "[2]", "value": 577.35, "unit": "µg/mL"}]}
{"smiles": "C=CCC(=O)N[C@H](c1nc(-c2nc(C(=O)OC)c(C)o2)cs1)C(C)C", "note": "[Wang 363.43-2]", "values": [{"measurement": "IC50", "setting": "influenza A virus", "value": 0.42, "unit": "µg/mL"}, {"measurement": "TC50", "setting": "[2]", "value": 500, "unit": "µg/mL"}]}
{"smiles": "COC(=O)c1nc(-c2csc([C@@H](NC(=O)C3CCC3)C(C)C)n2)oc1C", "note": "[Wang 377.46-1]", "values": [{"measurement": "IC50", "setting": "influenza A virus", "value": 111, "unit": "µg/mL"}, {"measurement": "TC50", "setting": "[2]", "value": 500, "unit": "µg/mL"}]}
{"smiles": "C=CCCC(=O)N[C@H](c1nc(-c2nc(C(=O)OC)c(C)o2)cs1)C(C)C", "note": "[Wang 377.46-2]", "values": [{"measurement": "IC50", "setting": "influenza A virus", "value": 259, "unit": "µg/mL"}, {"measurement": "TC50", "setting": "[2]", "value": 577.35, "unit": "µg/mL"}]}
{"smiles": "COC(=O)c1nc(-c2csc([C@@H](NC(=O)CC3=CCCC3)C(C)C)n2)oc1C", "note": "[Wang 403.50]", "values": [{"measurement": "IC50", "setting": "influenza A virus", "value": 64.2, "unit": "µg/mL"}, {"measurement": "TC50", "setting": "[2]", "value": 333.33, "unit": "µg/mL"}]}
{"smiles": "COC(=O)c1nc(-c2csc([C@@H](NC(=O)CC3=CCCCC3)C(C)C)n2)oc1C", "note": "[Wang 417.52]", "values": [{"measurement": "IC50", "setting": "influenza A virus", "value": 68.7, "unit": "µg/mL"}, {"measurement": "TC50", "setting": "[2]", "value": 231.12, "unit": "µg/mL"}]}
{"smiles": "C=CCC(=O)N[C@H](c1nc(-c2nc(C(=O)N[C@@H](C)c3nc(C(=O)OC)co3)c(C)o2)cs1)C(C)C", "note": "[Wang 501.56-2]", "values": [{"measurement": "IC50", "setting": "influenza A virus", "value": 68.7, "unit": "µg/mL"}, {"measurement": "TC50", "setting": "[2]", "value": 577.35, "unit": "µg/mL"}]}
